According to US10947218B2, “Aminopyridine derivatives and their use as selective ALK-2 inhibitors” (priority 2016, dated 2021):
Counter-ions that a name gives are not always drawn.

Tests used:
[1] = Solubility in aqueous media (25° C., 24 h equilibration); type: physicochemical; settings: pH 9.0 borate buffer/8.6, target concentration 2 mg/mL
[2] = Dynamic Vapor Sorption (physical stability versus relative humidity); type: physicochemical
Description: The peaks found are: Wave number (in cm^−1): 3241(m), 2951(w), 2867(w), 1669(m), 1538(m), 1456(w), 1355(m), 1249(m), 1087(w), 979(w), 885(w), 797(w). […] Then 3 mL of heptane were added into the solution. White solid precipitated out. The solid was separated by suction filtration and dried at 40° C. under vacuum overnight. 380 mg of a fumarate salt amorphous form of 2-amino-N-(4-hydroxybicyclo[2.2.2]octan-1-yl)-5-(4-((1R,5S)-3-(tetrahydro-2H-pyran-4-yl)-3-azabicyclo[3.1.0]hexan-1-yl)phenyl)nicotinamide was obtained as a white solid. […] Resulting mixture was stirred at 50° C. for 0.5 hour and a clear solution was obtained. To the solution was slowly added a solution of 695.2 mg in 10 mL of acetone:water (95:5, v/v). Resulting suspension was gradually cooled to 25° C. and was kept stirring for 24 hours. Add 1.5 mL water to the suspension. The mixture was kept stirring at 50° C. for 12 hours and slowly cooled to 25° C. Solid was separated by suction filtration, washed with 10 mL acetone:water (90:10, v/v) once, and exposed to an ambient environment (about 25° C., 50% RH) overnight. […]

solubility [1] | Compound | physical stability over relative humidity (DVS) ([2]; 25° C., FIG. 15) | physical stability over relative humidity (DVS) ([2]; 40° C., FIG. 16)
<LOQ | Nc1ncc(-c2ccc([C@@]34C[C@@H]3CN(C3CCOCC3)C4)cc2)cc1C(=O)NC12CCC(O)(CC1)CC2 [Free form Modification HA, 2-amino-N-(4-hydroxybicyclo[2.2.2]octan-1-yl)-5-(4-((1R,5S)-3-(tetrahydro-2H-pyran-4-yl)-3-azabicyclo[3.1.0]hexan-1-yl)phenyl)nicotinamide] | – | –
– | Nc1ncc(-c2ccc([C@@]34C[C@@H]3CN(C3CCOCC3)C4)cc2)cc1C(=O)NC12CCC(O)(CC1)CC2 [Fumarate salt Modification HA, 2-amino-N-(4-hydroxybicyclo[2.2.2]octan-1-yl)-5-(4-((1R,5S)-3-(tetrahydro-2H-pyran-4-yl)-3-azabicyclo[3.1.0]hexan-1-yl)phenyl)nicotinamide] | physically stable at least from 0% to 90% RH | physically stable at least from 10% to 90% RH
